# Test system: 817829-284-R-J1-PDC complex spheroids, viability
# Test: Anticancer human tumor 817829-284-R-J1-PDC patient-derived colon adenocarcinoma cell line growth inhibition [GQUAD]
# Conditions: for IC50: curve of first compound; for viability, T/C: stronger effect = lower value
# Procedure, shortened: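 Tumor cells were grown as complex spheroids with HUVEC endothelial cells and mesenchymal stem cells as stroma. G-quadruplex stabilizers were combined with targeted agents over half-log dilutions from near the clinical Cmax, or from 10 microM.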
# [1] = second compound 0.0316 µM, first compound 0.0316 µM
# [2] = second compound 0.0316 µM, first compound 0.1 µM
# [3] = second compound 0.0316 µM, first compound 0.316 µM
# [4] = second compound 0.0316 µM, first compound 1 µM
# [5] = second compound 0.0316 µM, first compound 3.16 µM
# [6] = second compound 0.0316 µM, first compound 10 µM
# [7] = second compound 0.1 µM, first compound 0.0316 µM
# [8] = second compound 0.1 µM, first compound 0.1 µM
# [9] = second compound 0.1 µM, first compound 0.316 µM
# [10] = second compound 0.1 µM, first compound 1 µM
# [11] = second compound 0.1 µM, first compound 3.16 µM
# [12] = second compound 0.1 µM, first compound 10 µM
# [13] = second compound 0.316 µM, first compound 0.0316 µM
# [14] = second compound 0.316 µM, first compound 0.1 µM
# [15] = second compound 0.316 µM, first compound 0.316 µM
# [16] = second compound 0.316 µM, first compound 1 µM
# [17] = second compound 0.316 µM, first compound 3.16 µM
# [18] = second compound 0.316 µM, first compound 10 µM
# [19] = second compound 1 µM, first compound 0.0316 µM
# [20] = second compound 1 µM, first compound 0.1 µM
# [21] = second compound 1 µM, first compound 0.316 µM
# [22] = second compound 1 µM, first compound 1 µM
# [23] = second compound 1 µM, first compound 3.16 µM
# [24] = second compound 1 µM, first compound 10 µM
# [25] = second compound 3.16 µM, first compound 0.0316 µM
# [26] = second compound 3.16 µM, first compound 0.1 µM
# [27] = second compound 3.16 µM, first compound 0.316 µM
# [28] = second compound 3.16 µM, first compound 1 µM
# [29] = second compound 3.16 µM, first compound 3.16 µM
# [30] = second compound 3.16 µM, first compound 10 µM
# [31] = second compound 10 µM, first compound 0.0316 µM
# [32] = second compound 10 µM, first compound 0.1 µM
# [33] = second compound 10 µM, first compound 0.316 µM
# [34] = second compound 10 µM, first compound 1 µM
# [35] = second compound 10 µM, first compound 3.16 µM
# [36] = second compound 10 µM, first compound 10 µM
# 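Note: spheroids exposed to agents for 7 days before readout.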
# 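Throughout, for viability, T/C: percent viability relative to DMSO vehicle control taken as 100%.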
smiles,measurement,setting,value
Nc1ccn(C2OC(CO)C(O)C2(F)F)c(=O)n1 (centres undefined) + Cc1cnc(CNC(=O)c2c(=O)c3ccc(N4CCCN(C)CC4)nc3n3c2sc2ccccc23)cn1,IC50,second compound 0.0316 µM,< 31.6 nM
same,IC50,second compound 0.1 µM,< 31.6 nM
same,IC50,second compound 0.316 µM,< 31.6 nM
same,IC50,second compound 1 µM,< 31.6 nM
same,IC50,second compound 3.16 µM,< 31.6 nM
same,IC50,second compound 10 µM,< 31.6 nM
same,"viability, T/C",[1],17.2%
same,"viability, T/C",[2],7.44%
same,"viability, T/C",[3],7.25%
same,"viability, T/C",[4],5.51%
same,"viability, T/C",[5],5.09%
same,"viability, T/C",[6],3.11%
same,"viability, T/C",[7],18%
same,"viability, T/C",[8],10.7%
same,"viability, T/C",[9],5.49%
same,"viability, T/C",[10],7.04%
same,"viability, T/C",[11],6.51%
same,"viability, T/C",[12],4.03%
same,"viability, T/C",[13],15.3%
same,"viability, T/C",[14],11.4%
same,"viability, T/C",[15],8.25%
same,"viability, T/C",[16],7.77%
same,"viability, T/C",[17],4.4%
same,"viability, T/C",[18],3.63%
same,"viability, T/C",[19],15.6%
same,"viability, T/C",[20],10.3%
same,"viability, T/C",[21],7.69%
same,"viability, T/C",[22],5.93%
same,"viability, T/C",[23],4.41%
same,"viability, T/C",[24],2.57%
same,"viability, T/C",[25],15%
same,"viability, T/C",[26],8.99%
same,"viability, T/C",[27],5.76%
same,"viability, T/C",[28],5.67%
same,"viability, T/C",[29],1%
same,"viability, T/C",[30],0.14%
same,"viability, T/C",[31],0.09%
same,"viability, T/C",[32],0.13%
same,"viability, T/C",[33],0.12%
same,"viability, T/C",[34],0.12%
same,"viability, T/C",[35],0.14%
same,"viability, T/C",[36],0.15%
COc1cccc2c1C(=O)c1c(O)c3c(c(O)c1C2=O)CC(O)(C(=O)CO)CC3OC1CC(N)C(O)C(C)O1 (centres undefined) + CN(C)c1ccc(Nc2c3ccc(NC(=O)CCN4CCCC4)cc3nc3cc(NC(=O)CCN4CCCC4)ccc23)cc1,IC50,second compound 0.0316 µM,95.5 nM
same,IC50,second compound 0.1 µM,94.5 nM
same,IC50,second compound 0.316 µM,93.4 nM
same,IC50,second compound 1 µM,96.4 nM
same,IC50,second compound 3.16 µM,91 nM
same,IC50,second compound 10 µM,95.7 nM
same,"viability, T/C",[1],80.9%
same,"viability, T/C",[2],39.6%
same,"viability, T/C",[3],41%
same,"viability, T/C",[4],10%
same,"viability, T/C",[5],0.59%
same,"viability, T/C",[6],0.64%
same,"viability, T/C",[7],79.7%
same,"viability, T/C",[8],43.4%
same,"viability, T/C",[9],35.5%
same,"viability, T/C",[10],10.1%
same,"viability, T/C",[11],0.47%
same,"viability, T/C",[12],0.28%
same,"viability, T/C",[13],82.7%
same,"viability, T/C",[14],37.8%
same,"viability, T/C",[15],40.4%
same,"viability, T/C",[16],9.85%
same,"viability, T/C",[17],0.54%
same,"viability, T/C",[18],0.34%
same,"viability, T/C",[19],83.1%
same,"viability, T/C",[20],38.4%
same,"viability, T/C",[21],40.9%
same,"viability, T/C",[22],10.8%
same,"viability, T/C",[23],0.57%
same,"viability, T/C",[24],0.34%
same,"viability, T/C",[25],91.9%
same,"viability, T/C",[26],37.6%
same,"viability, T/C",[27],33.8%
same,"viability, T/C",[28],9.5%
same,"viability, T/C",[29],0.71%
same,"viability, T/C",[30],0.36%
same,"viability, T/C",[31],85.8%
same,"viability, T/C",[32],39%
same,"viability, T/C",[33],37.6%
same,"viability, T/C",[34],12.3%
same,"viability, T/C",[35],1%
same,"viability, T/C",[36],0.33%
